Where two headings read alike, the source gives them in different places.
Columns and labels:
SARS-CoV-2 [1] = settings: cell model not given; read-out: estimated EC50; cited from earlier work
SARS-CoV-2 [2] = test: SARS-CoV-2 replication inhibition in Vero E6 cells (PFU titration); settings: for EC50: read-out: EC50 24 h, Vero E6, MOI 0.01, 24 hpi; for inhibition of SARS-CoV-2 replication: Vero E6, 24 hpi, 10 µM
in vitro [3] = settings: African green monkey
SARS-CoV-2 [4] = test: microbe, parasite or virus in culture; format: cell-based
in vitro [5] = settings: human
SARS-CoV-2 [6] = test system: SARS-CoV-2; design: method as in PMID 33880524; settings: Calu-3-based assays, 48 hpi; cited from earlier work
SARS-CoV-2 [7] = test system: SARS-CoV-2; design: method as in PMID 32759267; settings: infected Vero E6 cells; cited from earlier work
[8] = Cytotoxicity assay, methylene blue staining, Calu-3; settings: human
[9] = Severe acute respiratory syndrome coronavirus 2, Calu-3, 24 h, read-out: EC50 24 h, Calu-3, MOI 0.01, 24 hpi
[10] = Severe acute respiratory syndrome coronavirus 2, Calu-3, 48 h, read-out: EC50 48 h, Calu-3, MOI 0.01, 48 hpi
[11] = read-out: EC50 48 h, Calu-3, MOI 0.01, 48 hpi
[12] = Severe acute respiratory syndrome coronavirus 2, Calu-3, read-out: inhibition of coronavirus replication
[13] = read-out: EC50 24 h, Calu-3, MOI 0.01, 24 hpi
[14] = Severe acute respiratory syndrome coronavirus 2, 24 h, Calu-3, MOI 0.01, 24 hpi, read-out: EC50 24 h
[15] = Severe acute respiratory syndrome coronavirus 2, 48 h, Calu-3, MOI 0.01, 48 hpi, read-out: EC50 48 h

CC(C)C(=O)OC[C@H]1O[C@@H](n2ccc(NO)nc2=O)[C@H](O)[C@@H]1O [molnupiravir]
EC50 (SARS-CoV-2 [1]): 1.97 µM

Cc1cn([C@H]2C[C@H](N)[C@@H](C[Se]c3ccc(Cl)cc3)O2)c(=O)[nH]c1=O [R3d]
EC50 (SARS-CoV-2 [2]): 1.23 ± 0.54 µM
CC50 (in vitro [3]): 98.8 ± 11.7 µM
EC50 (SARS-CoV-2 [4]; [9]): 8.29 ± 0.82 µM
EC50 (SARS-CoV-2 [4]; [10]): ≤ 2.57 µM
EC50 (SARS-CoV-2 [4]; [11]): 2.17 ± 0.64 µM
CC50 (in vitro [5]): > 200 µM

COC(=O)N[C@H](C(=O)N1CCC[C@H]1c1nc(-c2ccc(-c3ccc(-c4c[nH]c([C@@H]5CCCN5C(=O)[C@@H](NC(=O)OC)C(C)C)n4)cc3)cc2)c[nH]1)C(C)C [daclatasvir]
EC50 (SARS-CoV-2 [6]): 1.1 ± 0.3 µM

Cc1ccc([Te]C[C@H]2O[C@@H](n3cc(C)c(=O)[nH]c3=O)C[C@@H]2N)cc1 [R3n]
EC50 (SARS-CoV-2 [2]): 6.1 ± 0.41 µM
CC50 (in vitro [3]): 60.1 ± 4.4 µM
EC50 (SARS-CoV-2 [4]; [9]): ≤ 2 µM
EC50 (SARS-CoV-2 [4]; [10]): ≤ 2.57 µM
inhibition at 10 µM (SARS-CoV-2 [4]; [12]): > 95%
EC50 (SARS-CoV-2 [4]; [13]): 1.18 ± 0.61 µM
EC50 (SARS-CoV-2 [4]; [11]): 2.57 ± 0.62 µM
CC50 (in vitro [5]): 68.7 ± 11.4 µM

COc1ccc([Te]C[C@H]2O[C@@H](n3cc(C)c(=O)[nH]c3=O)C[C@@H]2N)cc1 [R3o]
EC50 (SARS-CoV-2 [2]): 4.95 ± 0.64 µM
CC50 (in vitro [3]): 39.9 ± 4.4 µM
EC50 (SARS-CoV-2 [4]; [9]): 6.18 ± 2.05 µM
EC50 (SARS-CoV-2 [4]; [10]): ≤ 2.57 µM
EC50 (SARS-CoV-2 [4]; [11]): 1.99 ± 1.73 µM
CC50 (in vitro [5]): 30.7 ± 5.6 µM

Cc1cn([C@H]2C[C@H](N)[C@@H](C[Se]c3cccc4ccccc34)O2)c(=O)[nH]c1=O [R3e]
inhibition of SARS-CoV-2 replication (SARS-CoV-2 [2]): approximately 95%
EC50 (SARS-CoV-2 [2]): 1.99 ± 0.42 µM
CC50 (in vitro [3]): > 200 µM
EC50 (SARS-CoV-2 [4]; [9]): ≤ 2 µM
EC50 (SARS-CoV-2 [4]; [10]): ≤ 2.57 µM
inhibition at 10 µM (SARS-CoV-2 [4]; [12]): > 95%
EC50 (SARS-CoV-2 [4]; [13]): 1.92 ± 0.43 µM
EC50 (SARS-CoV-2 [4]; [11]): 2.31 ± 0.54 µM
CC50 (in vitro [5]): 156 ± 5 µM

Cc1cn([C@H]2C[C@H](N)[C@@H](C[Te]c3cccc4ccccc34)O2)c(=O)[nH]c1=O [R3q]
melting point: 134.1 to 135.6 °C
EC50 (SARS-CoV-2 [2]): 4.21 ± 0.43 µM
CC50 (in vitro [3]): 33.6 ± 6.9 µM
EC50 (SARS-CoV-2 [4]; [9]): ≤ 2 µM
inhibition at 10 µM (SARS-CoV-2 [4]; [12]): > 95%
EC50 (SARS-CoV-2 [4]; [13]): 2.03 ± 0.32 µM
CC50 (in vitro [5]): 34.3 ± 10.2 µM

COC(=O)N[C@H](C(=O)N[C@@H](Cc1ccccc1)[C@@H](O)CN(Cc1ccc(-c2ccccn2)cc1)NC(=O)[C@@H](NC(=O)OC)C(C)(C)C)C(C)(C)C [atazanavir]
EC50 (SARS-CoV-2 [7]): 2 ± 0.12 µM

Cc1cn([C@H]2C[C@H](N=[N+]=[N-])[C@@H](CO)O2)c(=O)[nH]c1=O [AZT, azidothymidine, reference compound]
CC50 at 72 h [8]: > 200 µM
EC50 (SARS-CoV-2 [4]; [14]): > 10 µM
EC50 (SARS-CoV-2 [4]; [15]): > 10 µM

Cc1cn([C@H]2C[C@H](N)[C@@H](C[Se]c3ccccc3)O2)c(=O)[nH]c1=O [R3a]
EC50 (SARS-CoV-2 [2]): 2.25 ± 0.43 µM
CC50 (in vitro [3]): > 200 µM
EC50 (SARS-CoV-2 [4]; [9]): 6.37 ± 0.58 µM
EC50 (SARS-CoV-2 [4]; [10]): 3.67 ± 1.57 µM
CC50 (in vitro [5]): > 200 µM

Cc1ccc([Se]C[C@H]2O[C@@H](n3cc(C)c(=O)[nH]c3=O)C[C@@H]2N)cc1 [R3b]
EC50 (SARS-CoV-2 [2]): 2.97 ± 0.62 µM
CC50 (in vitro [3]): > 200 µM
EC50 (SARS-CoV-2 [4]; [9]): 3.82 ± 1.42 µM
EC50 (SARS-CoV-2 [4]; [10]): 1.33 ± 0.35 µM
inhibition at 10 µM (SARS-CoV-2 [4]; Severe acute respiratory syndrome coronavirus 2, Calu-3, read-out: inhibition of viral replication): 95%
CC50 (in vitro [5]): > 200 µM

Cc1cn([C@H]2C[C@H](N)[C@@H](CSc3ccccc3)O2)c(=O)[nH]c1=O [R3r]
EC50 (SARS-CoV-2 [4]; [14]): > 10 µM
EC50 (SARS-CoV-2 [4]; [15]): > 10 µM
CC50 at 72 h (in vitro [5]): > 200 µM

Cc1cn([C@H]2C[C@H](N)[C@@H](C[Te]c3ccccc3)O2)c(=O)[nH]c1=O [R3f]
inhibition of SARS-CoV-2 replication (SARS-CoV-2 [2]): approximately 95%
EC50 (SARS-CoV-2 [2]): 2.67 ± 0.63 µM
CC50 (in vitro [3]): 52.1 ± 12.7 µM
EC50 (SARS-CoV-2 [4]; [9]): ≤ 2 µM
EC50 (SARS-CoV-2 [4]; [10]): 4.86 ± 1.31 µM
inhibition at 10 µM (SARS-CoV-2 [4]; [12]): > 95%
CC50 (in vitro [5]): 44.6 ± 8.3 µM

COc1ccc([Se]C[C@H]2O[C@@H](n3cc(C)c(=O)[nH]c3=O)C[C@@H]2N)cc1 [R3c]
EC50 (SARS-CoV-2 [2]): 3.31 ± 0.92 µM
CC50 (in vitro [3]): > 200 µM
EC50 (SARS-CoV-2 [4]; [9]): 5.17 ± 0.81 µM
EC50 (SARS-CoV-2 [4]; [10]): 3.43 ± 1.52 µM
CC50 (in vitro [5]): > 200 µM

Cc1cn([C@H]2C[C@H](N)[C@@H](C[Te]c3ccc(Cl)cc3)O2)c(=O)[nH]c1=O [R3p]
inhibition of SARS-CoV-2 replication (SARS-CoV-2 [2]): approximately 95%
EC50 (SARS-CoV-2 [2]): 4.89 ± 0.52 µM
CC50 (in vitro [3]): 49.7 ± 7.5 µM
EC50 (SARS-CoV-2 [4]; [9]): 4.33 ± 1.03 µM
EC50 (SARS-CoV-2 [4]; [10]): 12.7 ± 1.74 µM
CC50 (in vitro [5]): 35.2 ± 7.5 µM

— PMC10537738, “Antiviral Effect of 5′-Arylchalcogeno-3-aminothymidine Derivatives in SARS-CoV-2 Infection” (Molecules, 2023)
